The results in this text go back to patent US11072619B2, “Pyrazole[1,5-a] pyrimidine derivatives as kinase JAK inhibitors” (CELON PHARMA S.A., priority 2017, dated 2021).

Each structure is given as a SMILES string. pIC50: −log10 of the molar value.

Test [1] has as its system TF-1 cells. The test is described as follows: TF-1 cells viability in vitro in the presence of IL-4 (JAK1/JAK3 activation). The format is cell-based. To be noted: Homo sapiens, TF-1; 20 ng/mL IL-4, 72 hours, ATPlite; read-out: JAK1,3 IL4 (EC50, inhibition of viability of TF-1 cells). How it is done:
(§1) Assay for TF-1 Cells Viability In Vitro
(§2) The effects of the activity of the compounds of the invention were tested in vitro using cells viability assay described below.
(§3) Tested compounds were dissolved in 100% DMSO, and obtained stock solutions were serially diluted in OptiMEM medium (Reduced Serum Medium-Thermo Fisher Scientific). TF-1 cells (DSMZ no.: ACC 334) in culture medium (80% RPMI 1640+20% FBS) ad in the presence of 5 ng/mL IL-3 or 20 ng/mL IL-4 were deposited on 96-well plates in the volume of 90 μl per well, 10 thousands of cells per well. To a well of the 96-well plate 10 μL of the prepared 10× stock solutions of the compounds. Cells on 96-well plates were incubated with the compounds for 72 hours at 37° C., 5% CO2. Subsequently, viability of the cells was measured using ATPlite kit (Perkin Elmer). For this purpose, 50 μL of lysis buffer (mammalian cell lysis solution) were added to a well of the 96-well plate and the plate was incubated for 10 minutes at 25° C. in a plate thermo-shaker with orbital stirring at 600 rpm. Then to a well of the 96-well plate 50 μL of substrate (substrate solution) were added and incubated for 15 minutes at in dark, in a plate thermo-shaker with orbital stirring at 600 rpm. After incubation time, luminescence intensity in a well was measured using Victor×Light luminometer (Perkin Elmer, Inc.).
On the basis of luminescence intensity measurements in well containing tested compounds at various concentrations and in control wells EC50 values were determined. These values were determined with Graph Pad software v. 5.03, by fitting points of the curve using non-linear regression method. Each compound was tested in at least 6 repetitions (6 wells) on two 96-well plates, using at least 3 wells of each control.
Background: Cellular ATP, detected with luciferase, serves as a proxy for viable cell number.

The subject of test [2] is STAT6 protein phosphorylation in TF-1 cells. The test is described as follows: STAT6 phosphorylation inhibition in vitro in TF-1 cells with IL-4. The format is cell-based. To be noted: Homo sapiens, IL-4 20 ng/mL, 1 hour, Western blot densitometry. How it is done:
Assay of STAT6 Phosphorylation Inhibition In Vitro
The activity of the compounds of the invention was tested using in vitro assay described below.
Tested compounds were dissolved in 100% DMSO, and obtained stock solutions were serially in OptiMEM medium (Reduced Serum Medium-Thermo Fisher Scientific). TF-1 cells (DSMZ no.: ACC 334) in culture medium (80% RPMI 1640+20% FBS) in the presence of IL-4 at 20 ng/mL were sieved on 12-well plates at 900 μl/well, 700 thousands of cells/well. To a well of the 12-well plate 100 μL of obtained 10× solution of the compounds were added. Cells on 12-well plates were incubated with tested compounds for 1 hour at 37° C., 5% CO2. Subsequently the cells were washed with PBS, lysed in RIPA buffer added with EDTA, proteases and phosphatases inhibitors, and incubated for 5 min on ice. Protein concentration was determined using Pierce BCA Protein Assay Kit (Thermo Fisher Scientific). Protein lysates were separated by electrophoresis (SDS-PAGE) on 8% polyacrylamide gels, then wet-transferred on nitrocellulose membrane and tested proteins were detected in accordance with the instructions of antibody manufacturer.
On the basis of the measurement of chemoluminescence intensity densitometric analysis was performed, results obtained for the cells treated with tested compounds at various concentrations were compared with those obtained for control cells, and IC50 values were determined.
These values were determined with Graph Pad software v. 5.03, by fitting points of the curve using non-linear regression method. Each compound was tested in at least 3 repetitions.

For another test, the target named is Recombinant kinase JAK3 (Homo sapiens (Human), UniProt P52333). The test is described as follows: In vitro JAK kinase inhibition assay (ADP-Glo), JAK3. The format is biochemical. To be noted: 30 μM ATP, peptide IGF-1Rtide, averaged. How it is done:
(§4) In Vitro JAK Kinase Inhibition Assay
(§5) The effects of the compounds of the invention were analysed in vitro using kinase JAK inhibition assay described below.
(§6) Tested compounds were dissolved in 100% DMSO, and obtained stock solutions were serially diluted in the reaction buffer (50 mM Tris pH 7.5, 10 mM MgCl2, 0.25 mM EGTA, 0.1 mM Na3VO4, 0.01% Triton X-100, 2.5 mM DTT). Recombinant kinases JAK1 (ProQinase), JAK2, or JAK3 (Carna Biosciences) were diluted in the dilution buffer (50 mM Tris-HCl pH 7.5, 150 mM NaCl, 10% glycerol, 0.05% Triton X-100, 1 mM DTT) to the final concentration 3 ng/μL (JAK1), 0.1 ng/μL (JAK2), or 0.2 ng/μL (JAK3). 5 μL of obtained solution of the compounds and 5 μL of the solution of respective kinases were added to the well of a 96-well plate. To initiate interaction between tested compounds and an enzyme, the plate was incubated for 10 minutes at 25° C. in a Plate-Thermo-Shaker with orbital stirring at 400 rpm. Wells of a negative control contained all reagents as mentioned above with the exception of tested compounds and kinase, and wells of a positive controls contained all reagents as mentioned above with the exception of tested compounds. Enzymatic reaction was initiated by the addition of 15 μL of the following solution: 5× concentrated reaction buffer (50 mM Tris pH 7.5, 10 mM MgCl2, 0.25 mM EGTA, 0.1 mM Na3VO4, 0.01% Triton X-100, 2.5 mM DTT), water, 30 μM ATP and for particular kinases: JAK1—60 μM peptide IRS-1 (Enzo), JAK2 or JAK3—10 μM peptide IGF-1Rtide (Lipopharm). Then the plate was incubated for 1 hour at 25° C. in a Plate-Thermo-Shaker, with orbital stirring at 400 rpm. Detection of ADP formed in the enzymatic reaction was then performed using ADP-Glo Kinase Assay kit (Promega). For this purpose, to the well of the 96-well plate 25 μL of ADP-Glo Reagent were added, and the plate was incubated for 40 minutes at 25° C. in a Plate-Thermo-Shaker with orbital stirring at 400 rpm. Then to the well of the 96-well plate 50 μL of Kinase Detection Reagent were added and the plate was incubated for 30 minutes at 25° C. in a Plate-Thermo-Shaker with orbital stirring at 400 rpm. After incubation, luminescence intensity was measured using Victor×Light luminometer (Perkin Elmer, Inc.).
(§7) On the basis of luminescence measurement in wells containing tested compounds at various concentrations and in control wells, IC50 values were determined. These values were determined with Graph Pad software v. 5.03, by fitting points of the curve using non-linear regression method. Each compound was tested in at least 6 repetitions (6 wells) on two 96-well plates, using at least 3 wells of each control.
(§8) Averaged results of kinases JAK inhibition activity for selected compounds of the present invention are presented below in Table 1.
For orientation: ADP-Glo turns the ADP formed in a reaction into a luminescent signal.

The subject of test [3] is TF-1 cells. Nature of the test: TF-1 cells viability in vitro in the presence of IL-3 (JAK2 activation). The format is cell-based. To be noted: Homo sapiens, 5 ng/mL IL-3, 72 hours, ATPlite, read-out: JAK2 IL3 (EC50, inhibition of viability of TF-1 cells). The protocol: as §1, §2
as §3, with “TF-1 cells (DSMZ no.: ACC 334) in culture medium (80% RPMI 1640+20% FBS) ad in the presence of 5 ng/mL IL-3 or 20 ng/mL IL-4 were deposited on 96-well plates in the volume of 90 μl per well, 10 thousands of cells per well.” left out
On the basis of luminescence intensity measurements in well containing tested compounds at various concentrations and in control wells EC50 values were determined. These values were determined with Graph Pad software v. […] Each compound was tested in at least 6 repetitions (6 wells) on two 96-well plates, using at least 3 wells of each control.

Another test concerns the target Recombinant kinase JAK1 (Homo sapiens (Human), UniProt P23458). Nature of the test: In vitro JAK kinase inhibition assay (ADP-Glo), JAK1. To be noted: 30 μM ATP, peptide IRS-1, averaged. The format is biochemical. The protocol:
as §4, §5, §6, §7, §8

Recombinant kinase JAK3, sequence (P52333 whole entry): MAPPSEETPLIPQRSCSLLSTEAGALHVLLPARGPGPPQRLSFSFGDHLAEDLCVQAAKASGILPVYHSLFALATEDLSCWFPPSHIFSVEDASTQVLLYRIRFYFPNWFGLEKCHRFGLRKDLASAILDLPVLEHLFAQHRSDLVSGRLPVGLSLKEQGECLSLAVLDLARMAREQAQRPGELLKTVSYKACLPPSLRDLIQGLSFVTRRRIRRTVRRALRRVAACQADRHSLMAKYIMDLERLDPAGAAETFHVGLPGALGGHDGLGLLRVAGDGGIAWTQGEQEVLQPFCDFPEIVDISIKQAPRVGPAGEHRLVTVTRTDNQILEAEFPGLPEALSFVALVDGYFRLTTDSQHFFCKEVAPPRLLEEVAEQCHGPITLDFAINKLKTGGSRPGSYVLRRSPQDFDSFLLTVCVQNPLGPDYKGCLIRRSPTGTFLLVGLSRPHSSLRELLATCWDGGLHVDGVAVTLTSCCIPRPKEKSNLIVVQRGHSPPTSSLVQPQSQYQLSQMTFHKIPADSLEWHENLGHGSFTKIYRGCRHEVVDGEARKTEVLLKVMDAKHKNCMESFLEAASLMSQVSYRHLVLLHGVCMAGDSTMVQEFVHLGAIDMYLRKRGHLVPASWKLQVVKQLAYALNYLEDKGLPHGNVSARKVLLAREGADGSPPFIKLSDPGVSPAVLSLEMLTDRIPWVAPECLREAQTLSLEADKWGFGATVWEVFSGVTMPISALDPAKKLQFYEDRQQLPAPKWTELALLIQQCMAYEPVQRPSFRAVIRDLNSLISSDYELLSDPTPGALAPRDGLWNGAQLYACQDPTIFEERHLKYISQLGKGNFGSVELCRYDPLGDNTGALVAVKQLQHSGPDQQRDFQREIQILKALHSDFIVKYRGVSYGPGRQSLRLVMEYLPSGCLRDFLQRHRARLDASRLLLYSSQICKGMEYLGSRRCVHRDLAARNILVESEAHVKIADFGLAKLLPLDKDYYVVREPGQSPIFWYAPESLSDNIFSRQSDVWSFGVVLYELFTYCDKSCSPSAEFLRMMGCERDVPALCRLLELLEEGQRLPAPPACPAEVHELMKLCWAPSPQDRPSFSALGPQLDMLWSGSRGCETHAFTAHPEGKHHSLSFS
Recombinant kinase JAK1, sequence (P23458 whole entry): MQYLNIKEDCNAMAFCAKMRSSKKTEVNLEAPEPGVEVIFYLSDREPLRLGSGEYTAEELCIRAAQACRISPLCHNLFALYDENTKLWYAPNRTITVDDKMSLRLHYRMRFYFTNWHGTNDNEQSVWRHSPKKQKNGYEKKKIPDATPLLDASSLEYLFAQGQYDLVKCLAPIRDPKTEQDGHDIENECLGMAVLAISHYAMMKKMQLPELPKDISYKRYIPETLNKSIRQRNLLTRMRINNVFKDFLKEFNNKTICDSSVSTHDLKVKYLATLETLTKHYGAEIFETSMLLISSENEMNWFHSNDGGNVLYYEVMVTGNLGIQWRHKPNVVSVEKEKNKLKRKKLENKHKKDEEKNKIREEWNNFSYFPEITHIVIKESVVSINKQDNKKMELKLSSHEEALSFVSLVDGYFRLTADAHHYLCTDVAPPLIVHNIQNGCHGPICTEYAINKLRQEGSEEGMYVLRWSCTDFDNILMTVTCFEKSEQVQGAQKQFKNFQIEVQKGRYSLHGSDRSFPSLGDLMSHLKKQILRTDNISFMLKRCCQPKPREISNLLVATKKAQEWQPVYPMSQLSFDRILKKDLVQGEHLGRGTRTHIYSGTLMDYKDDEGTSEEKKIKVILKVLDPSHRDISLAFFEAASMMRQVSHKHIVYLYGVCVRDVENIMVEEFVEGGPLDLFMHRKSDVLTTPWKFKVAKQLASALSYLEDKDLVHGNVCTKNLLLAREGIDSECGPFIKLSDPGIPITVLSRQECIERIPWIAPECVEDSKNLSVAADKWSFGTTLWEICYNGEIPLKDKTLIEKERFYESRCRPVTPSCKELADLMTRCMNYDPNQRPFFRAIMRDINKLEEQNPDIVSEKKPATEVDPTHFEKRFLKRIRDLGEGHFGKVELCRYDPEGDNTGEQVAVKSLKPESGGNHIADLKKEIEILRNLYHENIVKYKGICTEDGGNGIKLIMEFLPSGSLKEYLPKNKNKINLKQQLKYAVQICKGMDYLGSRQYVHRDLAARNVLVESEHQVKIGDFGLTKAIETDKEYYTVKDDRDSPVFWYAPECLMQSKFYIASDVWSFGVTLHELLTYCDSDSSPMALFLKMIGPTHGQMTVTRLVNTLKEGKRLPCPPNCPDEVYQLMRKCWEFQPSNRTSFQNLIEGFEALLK

For `CC1(C)CN(c2ccc(C#N)nn2)CC[C@H]1Nc1c(C(N)=O)cnc2cc(-c3ccnc(N4CCOCC4)c3)nn12` [Example 13, (R)-7-((1-(6-Cyanopyridazin-3-yl)-3,3-dimethylpiperidin-4-yl)amino)-2-(2-morpholinopyridin-4-yl)pyrazolo[1,5-a]pyrimidine-6-carboxamide], the pIC50 with TF-1 cells [1] is 6.70; in test [2] it was 6.67; at Recombinant kinase JAK3, 9.70; with TF-1 cells [3], 5.95; on Recombinant kinase JAK1 it was 9.29.
